Measurements taken from the supplement of paper PMC11061612.

Experiments:
Assay in all cases: combination Emax (second highest fraction inhibited in the dose matrix, 72 h); higher = more inhibition; extreme values may be limits of the assay
MPP-89 (Mesothelioma) = test system: MPP-89 (Mesothelioma)
Procedure, shortened: (§1)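 Cell lines grown in DMEM/F12 or RPMI with 10% FBS were plated in 1536-well plates and held 24 hours at 37°C, 5% CO2 before 72 hours of exposure to two-drug dose matrices, with DMSO typically at 0.2%. CellTiter-Glo 2.0 luminescence gave viability, which was converted to inhibition. Vehicle wells were set to 0 and blank wells to 1. Combination Emax is the second-highest inhibition in the matrix, and Bliss excess is the observed combination effect minus the expected EA + EB − EA·EB, where EA and EB are the single-agent effects.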

[1] = test system: ESS-1 (Other Solid Carcinomas)
Procedure, shortened: as §1

[2] = test system: HuCCT1 (Biliary Tract Carcinoma)
Procedure, shortened: as §1

[3] = test system: YAPC (Pancreatic Carcinoma)
Procedure, shortened: as §1

[4] = test system: OVCAR-5 (Ovarian Carcinoma)
Procedure, shortened: as §1

A673 (Ewing's Sarcoma) = test system: A673 (Ewing's Sarcoma)
Procedure, shortened: as §1

CAL-72 (Osteosarcoma) = test system: CAL-72 (Osteosarcoma)
Procedure, shortened: as §1

[5] = test system: HH (T-Cell Non-Hodgkin's Lymphoma)
Procedure, shortened: as §1

SMILES | combination Emax (MPP-89 (Mesothelioma)) | combination Emax [1] | combination Emax [2] | combination Emax [3] | combination Emax [4] | combination Emax (A673 (Ewing's Sarcoma)) | combination Emax (CAL-72 (Osteosarcoma)) | combination Emax [5]
C=CCn1c(=O)c2cnc(Nc3ccc(N4CCN(C)CC4)cc3)nc2n1-c1cccc(C(C)(C)O)n1 [AZD1775] + Nc1ccn([C@@H]2O[C@H](CO)[C@@H](O)C2(F)F)c(=O)n1 [Gemcitabine] (first compound max 1 µM, partner max 0.3 µM) | 0.599 | 1 | 0.805 | 0.643 | 0.692 | 0.937 | 0.716 | 0.574
CN(CCO)CC[C@H](CSc1ccccc1)Nc1ccc(S(=O)(=O)NC(=O)c2ccc(N3CCC([C@@H](O)c4ccccc4-c4ccc(Cl)cc4)CC3)cc2)cc1S(=O)(=O)C(F)(F)F [AZD4320] + CS(=O)(=O)CCNCc1ccc(-c2ccc3ncnc(Nc4ccc(OCc5cccc(F)c5)c(Cl)c4)c3c2)o1 [Lapatinib] (first compound max 1 µM, 7x7, partner max 10 µM) | 0.746 | 0.973 | 0.615 | 0.257 | 0.896 | 0.973 | 0.933 | 0.316
Cc1c2c(nn1C)CSCc1cc(n(C)n1)CSc1cc(c3ccccc3c1)OCCCc1c(C(=O)O)n(C)c3c-2c(Cl)ccc13 [AZD5991] + CC(=O)O[C@H]1C(=O)[C@@]2(C)[C@H]([C@H](OC(=O)c3ccccc3)[C@]3(O)C[C@H](OC(=O)[C@H](O)[C@@H](NC(=O)c4ccccc4)c4ccccc4)C(C)=C1C3(C)C)[C@]1(OC(C)=O)CO[C@@H]1C[C@@H]2O [Paclitaxel] (first compound max 1 µM, 7x7, partner max 3 µM) | 0.557 | 1 | 0.549 | 0.315 | 0.707 | 0.95 | 0.736 | 0.87
Cc1c2c(nn1C)CSCc1cc(n(C)n1)CSc1cc(c3ccccc3c1)OCCCc1c(C(=O)O)n(C)c3c-2c(Cl)ccc13 [AZD5991] + CS(=O)(=O)CCNCc1ccc(-c2ccc3ncnc(Nc4ccc(OCc5cccc(F)c5)c(Cl)c4)c3c2)o1 [Lapatinib] (first compound max 1 µM, 7x7, partner max 10 µM) | 0.312 | 0.702 | 0.482 | 0.186 | 0.334 | 0.388 | 0.83 | 0.868
C[C@@H]1COCCN1c1cc(C2([S@](C)(=N)=O)CC2)nc(-c2ccnc3[nH]ccc23)n1 [AZD6738] + C1CC(C1)(C(=O)[O-])C(=O)[O-].N.N.[Pt+2] [Carboplatin] (first compound max 10 µM, 7x7, partner max 10 µM) | 0.42 | 0.98 | 0.683 | 0.369 | 0.75 | 0.781 | 0.718 | 0.22
C[C@@H]1COCCN1c1cc(C2([S@](C)(=N)=O)CC2)nc(-c2ccnc3[nH]ccc23)n1 [AZD6738] + Nc1ccn([C@@H]2O[C@H](CO)[C@@H](O)C2(F)F)c(=O)n1 [Gemcitabine] (first compound max 10 µM, 7x7, partner max 0.3 µM) | 0.63 | 1 | 0.779 | 0.725 | 0.743 |  | 0.897 | 0.716
C[C@@H](Nc1cc(F)cc(F)c1)c1cc(C(=O)N(C)C)cc2c(=O)cc(N3CCOCC3)oc12 [AZD8186] + C1CN(CCC1(C(=O)N[C@@H](CCO)C2=CC=C(C=C2)Cl)N)C3=NC=NC4=C3C=CN4 [AZD5363] (first compound max 10 µM, 7x7, partner max 10 µM) | 0.382 | 0.549 | 0.413 | 0.246 | 0.432 | 0.253 | 0.29 | 0.299
C[C@@H](Oc1cc(-c2cnn(C3CCNCC3)c2)cnc1N)c1c(Cl)ccc(F)c1Cl [Crizotinib] + CC1=C(C(=CC=C1)Cl)NC(=O)C2=CN=C(S2)NC3=CC(=NC(=N3)C)N4CCN(CC4)CCO [Dasatinib] (first compound max 10 µM, 7x7, partner max 2 µM) | 0.914 | 0.987 | 0.82 | 0.694 | 0.826 | 0.681 | 0.79 | 0.203
C[C@@H](Oc1cc(-c2cnn(C3CCNCC3)c2)cnc1N)c1c(Cl)ccc(F)c1Cl [Crizotinib] + Cn1cnc2c(F)c(Nc3ccc(Br)cc3Cl)c(C(=O)NOCCO)cc21 [Selumetinib] (first compound max 10 µM, 7x7, partner max 10 µM) | 0.37 | 0.773 | 0.725 | 0.526 | 0.7 | 0.742 | 0.59 | 0.0931
CS(=O)(=O)CCNCc1ccc(-c2ccc3ncnc(Nc4ccc(OCc5cccc(F)c5)c(Cl)c4)c3c2)o1 [Lapatinib] + Cn1cnc2c(F)c(Nc3ccc(Br)cc3Cl)c(C(=O)NOCCO)cc21 [Selumetinib] (first compound max 10 µM, 7x7, partner max 10 µM) | 0.42 | 0.705 | 0.801 | 0.386 | 0.655 | 0.343 | 0.446 | 0.211
O=C(c1cc(Cc2n[nH]c(=O)c3ccccc23)ccc1F)N1CCN(C(=O)C2CC2)CC1 [Olaparib] + CC1(C)CCC(CN2CCN(c3ccc(C(=O)NS(=O)(=O)c4ccc(NCC5CCOCC5)c([N+](=O)[O-])c4)c(Oc4cnc5[nH]ccc5c4)c3)CC2)=C(c2ccc(Cl)cc2)C1 [Venetoclax] (first compound max 10 µM, 7x7, partner max 1 µM) | 0.0498 | 0.467 | 0.0844 | 0.081 | 0.0569 | 0.501 | 0.191 | 0.165
O=C(c1cc(Cc2n[nH]c(=O)c3ccccc23)ccc1F)N1CCN(C(=O)C2CC2)CC1 [Olaparib] + CN(CC[C@H](CSC1=CC=CC=C1)NC2=C(C=C(C=C2)S(=O)(=O)NC(=O)C3=CC=C(C=C3)N4CCC(CC4)[C@H](C5=CC=CC=C5C6=CC=C(C=C6)Cl)O)S(=O)(=O)C(F)(F)F)CCO [AZD4320] (first compound max 10 µM, 7x7, partner max 1 µM) | 0.138 | 0.787 | 0.193 | 0.11 | 0.182 | 0.948 | 0.183 | 0.21
O=C(c1cc(Cc2n[nH]c(=O)c3ccccc23)ccc1F)N1CCN(C(=O)C2CC2)CC1 [Olaparib] + COc1nnc2ccc(N3CCC(c4ccc(OCCN5CCN(C)C(=O)[C@H]5C)cc4)CC3)nn12 [AZD5153] (first compound max 10 µM, 7x7, partner max 1 µM) | 0.393 | 0.695 | 0.456 | 0.267 | 0.449 | 0.578 | 0.475 | 0.382
O=C(c1cc(Cc2n[nH]c(=O)c3ccccc23)ccc1F)N1CCN(C(=O)C2CC2)CC1 [Olaparib] + Cc1c2c(nn1C)CSCc1cc(n(C)n1)CSc1cc(c3ccccc3c1)OCCCc1c(C(=O)O)n(C)c3c-2c(Cl)ccc13 [AZD5991] (first compound max 10 µM, 7x7, partner max 1 µM) | 0.0575 | 0.403 | 0.15 | 0.104 | 0.122 | 0.446 | 0.191 | 0.809
Cc1nc(-c2cn3c(n2)-c2ccc(-c4cnn(C(C)(C)C(N)=O)c4)cc2OCC3)n(C(C)C)n1 [Taselisib] + O=C(Nc1ccc2[nH]nc(-c3ccncc3)c2c1)[C@@H]1CCN(CC(=O)N2CCN(c3ccc(-c4ncccn4)cc3)CC2)C1 [SCH772984] (first compound max 10 µM, 7x7, partner max 5 µM) | 0.688 | 0.923 | 0.839 | 0.701 | 0.846 | 0.705 | 0.438 | 0.393
CC1(C)CCC(CN2CCN(c3ccc(C(=O)NS(=O)(=O)c4ccc(NCC5CCOCC5)c([N+](=O)[O-])c4)c(Oc4cnc5[nH]ccc5c4)c3)CC2)=C(c2ccc(Cl)cc2)C1 [Venetoclax] + CS(=O)(=O)CCNCc1ccc(-c2ccc3ncnc(Nc4ccc(OCc5cccc(F)c5)c(Cl)c4)c3c2)o1 [Lapatinib] (first compound max 1 µM, 7x7, partner max 10 µM) | 0.136 | 0.669 | 0.397 | 0.129 | 0.308 | 0.207 | 0.646 | 0.129
